Target: T1, Programmed cell death protein 4 (Homo sapiens, UniProt Q53EL6)
T1 sequence (Q53EL6 whole entry): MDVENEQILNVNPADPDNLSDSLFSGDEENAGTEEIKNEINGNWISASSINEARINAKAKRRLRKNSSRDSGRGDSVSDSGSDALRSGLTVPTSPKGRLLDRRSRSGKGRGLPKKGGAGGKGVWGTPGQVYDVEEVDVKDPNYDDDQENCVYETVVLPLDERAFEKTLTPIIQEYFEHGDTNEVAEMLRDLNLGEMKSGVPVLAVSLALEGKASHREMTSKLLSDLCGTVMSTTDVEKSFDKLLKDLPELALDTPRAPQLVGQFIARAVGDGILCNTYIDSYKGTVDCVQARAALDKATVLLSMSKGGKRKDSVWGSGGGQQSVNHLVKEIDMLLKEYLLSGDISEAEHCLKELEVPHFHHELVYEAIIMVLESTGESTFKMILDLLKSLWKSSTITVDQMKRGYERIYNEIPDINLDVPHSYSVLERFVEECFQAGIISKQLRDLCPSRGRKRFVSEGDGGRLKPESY
Test: Inhibition of PDCD4 in human HeLa cells tranfected with pCI-neo-luciferase-PDCD4 3'-UTR plasmid assessed as increase in luciferase activity by luciferase reporter assay

Work on `CCOC(=O)c1nc(-c2ccc(OC)cc2)oc1C` yielded an EC50 of 2.25 µM.
